Assay results reported in PMC12586182 (Frontiers in Oncology, 2025).

Columns and labels:
Format in all cases: biochemical
BTK = target: T1, BTK (Homo sapiens, UniProt Q06187); assay: Kinase enzyme activity assay (mobility shift assay, Carna); settings: for Percentage inhibition of kinase enzyme activity: BTK, 1 µmol/L of BTK inhibitor
T1 construct: purchased Carna Biosciences, Inc

PYK2 = target: T2, PYK2 (Homo sapiens, UniProt Q14289); assay: Kinase panel profiling at 1 µmol/L (mobility shift assay, Carna); settings: 1 µmol/L of BTK inhibitor
T2 construct: purchased Carna Biosciences
T2 sequence (Q14289 whole entry): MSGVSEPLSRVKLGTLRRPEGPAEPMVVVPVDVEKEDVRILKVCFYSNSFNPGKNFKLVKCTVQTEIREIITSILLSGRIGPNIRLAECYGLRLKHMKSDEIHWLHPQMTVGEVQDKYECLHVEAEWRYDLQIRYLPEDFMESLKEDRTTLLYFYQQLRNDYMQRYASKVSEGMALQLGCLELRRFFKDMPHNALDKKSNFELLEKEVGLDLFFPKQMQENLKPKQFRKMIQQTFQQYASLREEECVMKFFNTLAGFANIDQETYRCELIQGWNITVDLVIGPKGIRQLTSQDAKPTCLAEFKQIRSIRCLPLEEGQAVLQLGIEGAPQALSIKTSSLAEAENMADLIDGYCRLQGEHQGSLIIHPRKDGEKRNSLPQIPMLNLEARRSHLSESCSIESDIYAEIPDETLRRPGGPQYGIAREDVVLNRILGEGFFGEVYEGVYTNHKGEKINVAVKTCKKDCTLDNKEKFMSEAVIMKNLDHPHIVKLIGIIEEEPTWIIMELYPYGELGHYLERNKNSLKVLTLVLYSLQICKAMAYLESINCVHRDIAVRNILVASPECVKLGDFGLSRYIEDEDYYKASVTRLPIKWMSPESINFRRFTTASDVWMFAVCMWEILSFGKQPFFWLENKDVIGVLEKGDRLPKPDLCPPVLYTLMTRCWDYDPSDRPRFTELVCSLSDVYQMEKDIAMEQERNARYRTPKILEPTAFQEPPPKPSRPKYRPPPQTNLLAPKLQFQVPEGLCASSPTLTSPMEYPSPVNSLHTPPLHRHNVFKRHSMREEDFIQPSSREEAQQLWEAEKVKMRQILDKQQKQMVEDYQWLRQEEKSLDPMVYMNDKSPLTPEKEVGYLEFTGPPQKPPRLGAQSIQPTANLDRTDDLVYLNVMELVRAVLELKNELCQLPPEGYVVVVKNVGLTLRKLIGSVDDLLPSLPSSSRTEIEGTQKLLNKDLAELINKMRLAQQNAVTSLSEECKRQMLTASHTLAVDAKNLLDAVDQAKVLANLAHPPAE

TYRO3 = target: T3, TYRO3 (Homo sapiens, UniProt Q06418); assay: as above; settings: 1 µmol/L of BTK inhibitor
T3 construct: purchased Carna Biosciences
T3 sequence (Q06418 41-890): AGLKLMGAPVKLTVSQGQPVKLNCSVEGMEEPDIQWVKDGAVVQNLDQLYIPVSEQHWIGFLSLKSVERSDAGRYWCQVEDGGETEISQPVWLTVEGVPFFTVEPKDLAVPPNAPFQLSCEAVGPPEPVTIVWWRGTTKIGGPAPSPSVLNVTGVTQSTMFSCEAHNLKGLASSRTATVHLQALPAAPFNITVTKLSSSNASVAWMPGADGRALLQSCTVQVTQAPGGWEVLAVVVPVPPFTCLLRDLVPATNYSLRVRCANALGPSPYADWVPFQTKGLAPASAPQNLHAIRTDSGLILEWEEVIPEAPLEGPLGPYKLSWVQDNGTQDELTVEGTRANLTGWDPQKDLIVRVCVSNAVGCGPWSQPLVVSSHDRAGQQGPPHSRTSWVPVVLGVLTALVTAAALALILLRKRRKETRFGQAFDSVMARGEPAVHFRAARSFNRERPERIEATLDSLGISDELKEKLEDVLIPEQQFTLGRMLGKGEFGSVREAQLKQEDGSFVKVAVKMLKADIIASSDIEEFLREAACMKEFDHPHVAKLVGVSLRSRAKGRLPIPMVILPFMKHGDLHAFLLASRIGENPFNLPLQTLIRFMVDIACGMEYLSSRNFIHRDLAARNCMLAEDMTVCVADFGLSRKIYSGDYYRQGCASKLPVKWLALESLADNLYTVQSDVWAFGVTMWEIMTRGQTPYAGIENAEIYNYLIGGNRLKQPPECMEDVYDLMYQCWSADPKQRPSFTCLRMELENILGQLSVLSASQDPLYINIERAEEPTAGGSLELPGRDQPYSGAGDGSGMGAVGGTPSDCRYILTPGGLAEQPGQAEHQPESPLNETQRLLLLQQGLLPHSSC

CLK1 = target: T4, CLK1 (Homo sapiens, UniProt P49759); assay: as above; settings: 1 µmol/L of BTK inhibitor
T4 construct: purchased Carna Biosciences
T4 sequence (P49759 whole entry): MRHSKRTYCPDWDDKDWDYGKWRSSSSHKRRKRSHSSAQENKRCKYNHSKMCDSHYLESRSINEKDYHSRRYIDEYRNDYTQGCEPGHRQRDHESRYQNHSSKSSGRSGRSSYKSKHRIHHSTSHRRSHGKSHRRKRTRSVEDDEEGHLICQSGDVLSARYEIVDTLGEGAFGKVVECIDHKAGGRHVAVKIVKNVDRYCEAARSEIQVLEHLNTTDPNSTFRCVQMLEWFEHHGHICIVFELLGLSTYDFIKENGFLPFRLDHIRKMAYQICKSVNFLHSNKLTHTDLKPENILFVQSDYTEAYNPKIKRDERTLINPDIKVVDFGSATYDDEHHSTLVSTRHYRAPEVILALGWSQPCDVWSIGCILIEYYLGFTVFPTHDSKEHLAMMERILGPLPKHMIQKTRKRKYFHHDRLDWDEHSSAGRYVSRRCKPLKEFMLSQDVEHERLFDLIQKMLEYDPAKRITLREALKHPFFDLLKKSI

DYRK3 = target: T5, DYRK3 (Homo sapiens, UniProt O43781); assay: as above; settings: 1 µmol/L of BTK inhibitor
T5 construct: purchased Carna Biosciences
T5 sequence (O43781 1-588): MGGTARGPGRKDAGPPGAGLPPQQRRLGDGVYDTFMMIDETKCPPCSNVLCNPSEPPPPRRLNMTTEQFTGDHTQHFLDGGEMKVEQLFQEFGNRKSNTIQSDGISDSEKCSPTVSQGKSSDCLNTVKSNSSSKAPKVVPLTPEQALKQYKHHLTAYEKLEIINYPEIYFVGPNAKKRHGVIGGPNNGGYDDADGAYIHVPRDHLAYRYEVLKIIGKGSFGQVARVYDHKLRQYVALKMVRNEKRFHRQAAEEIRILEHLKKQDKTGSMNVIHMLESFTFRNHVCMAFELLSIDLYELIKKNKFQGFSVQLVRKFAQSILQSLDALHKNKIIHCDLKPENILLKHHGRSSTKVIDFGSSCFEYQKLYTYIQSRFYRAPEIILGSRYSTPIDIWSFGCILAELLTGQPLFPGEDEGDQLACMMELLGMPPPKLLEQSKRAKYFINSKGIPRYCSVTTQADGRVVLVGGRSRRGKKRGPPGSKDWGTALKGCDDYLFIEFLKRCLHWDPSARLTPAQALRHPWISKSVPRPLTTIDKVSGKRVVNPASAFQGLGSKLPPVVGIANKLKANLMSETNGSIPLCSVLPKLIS

JNK2 = target: T6, JNK2 (Homo sapiens, UniProt P45984); assay: as above; settings: 1 µmol/L of BTK inhibitor
T6 construct: purchased Carna Biosciences
T6 sequence (P45984 whole entry): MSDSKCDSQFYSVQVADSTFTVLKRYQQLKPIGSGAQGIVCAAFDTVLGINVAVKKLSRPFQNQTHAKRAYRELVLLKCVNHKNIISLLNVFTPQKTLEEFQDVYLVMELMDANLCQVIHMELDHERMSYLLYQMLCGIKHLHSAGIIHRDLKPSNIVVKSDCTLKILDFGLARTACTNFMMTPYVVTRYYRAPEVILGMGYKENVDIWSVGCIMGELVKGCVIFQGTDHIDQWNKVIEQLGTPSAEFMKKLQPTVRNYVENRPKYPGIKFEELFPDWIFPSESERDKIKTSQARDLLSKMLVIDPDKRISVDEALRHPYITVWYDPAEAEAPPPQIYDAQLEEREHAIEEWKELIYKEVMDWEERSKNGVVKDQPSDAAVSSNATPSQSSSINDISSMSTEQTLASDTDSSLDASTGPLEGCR

MRCKα = target: T7, MRCKα (Homo sapiens, UniProt Q5VT25); assay: as above; settings: 1 µmol/L of BTK inhibitor
T7 construct: purchased Carna Biosciences

NuaK2 = target: T8, NuaK2 (Homo sapiens, UniProt Q9H093); assay: as above; settings: 1 µmol/L of BTK inhibitor
T8 construct: purchased Carna Biosciences
T8 sequence (Q9H093 1-628): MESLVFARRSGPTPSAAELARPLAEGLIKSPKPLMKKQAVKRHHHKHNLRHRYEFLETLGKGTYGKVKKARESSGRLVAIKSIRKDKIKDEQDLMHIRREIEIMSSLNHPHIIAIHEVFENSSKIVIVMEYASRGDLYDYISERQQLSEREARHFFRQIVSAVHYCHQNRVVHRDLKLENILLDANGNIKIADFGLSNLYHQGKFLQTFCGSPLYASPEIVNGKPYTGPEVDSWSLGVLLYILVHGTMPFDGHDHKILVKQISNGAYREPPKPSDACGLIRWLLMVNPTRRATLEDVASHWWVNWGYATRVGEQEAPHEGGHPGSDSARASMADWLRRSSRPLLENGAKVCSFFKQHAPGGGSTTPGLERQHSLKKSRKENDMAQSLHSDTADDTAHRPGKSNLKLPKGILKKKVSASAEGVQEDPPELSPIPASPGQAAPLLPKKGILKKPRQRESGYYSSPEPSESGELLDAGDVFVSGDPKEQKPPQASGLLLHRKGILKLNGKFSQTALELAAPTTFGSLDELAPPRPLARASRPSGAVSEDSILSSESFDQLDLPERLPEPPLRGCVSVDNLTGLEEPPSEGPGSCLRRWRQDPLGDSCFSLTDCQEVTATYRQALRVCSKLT

PKCα = target: T9, PKCα (Homo sapiens, UniProt P17252); assay: as above; settings: 1 µmol/L of BTK inhibitor
T9 construct: purchased Carna Biosciences

ROCK2 = target: T10, ROCK2 (Homo sapiens, UniProt O75116); assay: as above; settings: 1 µmol/L of BTK inhibitor
T10 construct: purchased Carna Biosciences
T10 sequence (O75116 whole entry): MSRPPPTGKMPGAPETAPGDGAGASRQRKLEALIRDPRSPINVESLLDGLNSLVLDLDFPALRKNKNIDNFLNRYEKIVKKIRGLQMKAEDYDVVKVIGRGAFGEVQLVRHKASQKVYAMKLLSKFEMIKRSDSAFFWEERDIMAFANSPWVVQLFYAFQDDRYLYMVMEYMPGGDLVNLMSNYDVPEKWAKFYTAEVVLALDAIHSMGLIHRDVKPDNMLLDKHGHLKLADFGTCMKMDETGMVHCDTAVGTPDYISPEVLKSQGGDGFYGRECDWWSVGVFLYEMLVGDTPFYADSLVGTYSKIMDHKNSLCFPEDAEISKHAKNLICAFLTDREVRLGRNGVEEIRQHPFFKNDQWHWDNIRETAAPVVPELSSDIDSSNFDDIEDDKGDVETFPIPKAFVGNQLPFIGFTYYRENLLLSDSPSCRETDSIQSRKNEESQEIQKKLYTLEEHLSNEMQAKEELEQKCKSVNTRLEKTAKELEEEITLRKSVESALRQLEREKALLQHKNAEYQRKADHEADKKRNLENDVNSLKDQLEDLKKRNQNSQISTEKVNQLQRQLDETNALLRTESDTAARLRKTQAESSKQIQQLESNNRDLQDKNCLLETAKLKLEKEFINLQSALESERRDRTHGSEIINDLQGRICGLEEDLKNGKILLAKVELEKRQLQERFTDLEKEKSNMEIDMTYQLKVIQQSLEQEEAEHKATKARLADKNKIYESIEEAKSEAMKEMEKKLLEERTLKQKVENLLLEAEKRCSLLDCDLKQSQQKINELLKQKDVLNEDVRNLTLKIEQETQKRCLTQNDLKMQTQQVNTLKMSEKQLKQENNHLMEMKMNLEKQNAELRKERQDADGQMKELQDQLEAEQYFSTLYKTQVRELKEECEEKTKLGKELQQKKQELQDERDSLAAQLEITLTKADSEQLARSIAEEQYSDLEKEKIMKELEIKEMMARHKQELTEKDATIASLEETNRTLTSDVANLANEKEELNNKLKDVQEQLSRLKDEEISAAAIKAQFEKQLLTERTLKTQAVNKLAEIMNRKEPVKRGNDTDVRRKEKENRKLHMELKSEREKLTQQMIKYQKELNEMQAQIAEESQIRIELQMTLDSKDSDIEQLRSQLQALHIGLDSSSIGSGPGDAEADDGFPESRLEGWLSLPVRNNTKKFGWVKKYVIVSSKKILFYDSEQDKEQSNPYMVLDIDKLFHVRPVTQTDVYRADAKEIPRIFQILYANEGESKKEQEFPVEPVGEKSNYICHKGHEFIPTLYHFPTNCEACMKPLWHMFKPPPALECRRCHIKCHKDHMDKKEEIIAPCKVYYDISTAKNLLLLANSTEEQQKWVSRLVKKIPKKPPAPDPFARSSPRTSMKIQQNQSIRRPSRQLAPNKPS

SRPK2 = target: T11, SRPK2 (Homo sapiens, UniProt P78362); assay: as above; settings: 1 µmol/L of BTK inhibitor
T11 construct: purchased Carna Biosciences
T11 sequence (P78362 whole entry): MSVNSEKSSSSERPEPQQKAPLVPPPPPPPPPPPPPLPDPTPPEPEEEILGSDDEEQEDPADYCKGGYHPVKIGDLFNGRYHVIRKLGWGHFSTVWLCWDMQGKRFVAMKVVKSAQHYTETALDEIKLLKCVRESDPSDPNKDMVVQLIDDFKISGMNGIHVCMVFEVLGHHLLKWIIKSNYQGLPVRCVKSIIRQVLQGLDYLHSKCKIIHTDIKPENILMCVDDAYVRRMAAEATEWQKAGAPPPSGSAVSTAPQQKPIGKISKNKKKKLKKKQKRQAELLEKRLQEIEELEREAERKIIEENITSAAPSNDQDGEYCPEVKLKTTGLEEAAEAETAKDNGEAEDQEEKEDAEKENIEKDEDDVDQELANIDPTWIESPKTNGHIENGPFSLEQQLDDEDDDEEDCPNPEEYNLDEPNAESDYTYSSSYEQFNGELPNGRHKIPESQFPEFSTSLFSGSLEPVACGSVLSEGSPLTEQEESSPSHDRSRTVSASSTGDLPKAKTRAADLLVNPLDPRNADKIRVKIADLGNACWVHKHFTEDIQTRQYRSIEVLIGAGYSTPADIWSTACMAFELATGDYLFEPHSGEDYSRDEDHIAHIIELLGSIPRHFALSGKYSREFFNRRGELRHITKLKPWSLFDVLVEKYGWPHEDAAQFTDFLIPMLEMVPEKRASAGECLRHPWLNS

SMILES: CC#CC(=O)N1CCC[C@H]1c1nc(-c2ccc(C(=O)Nc3ccccn3)cc2)c2c(N)nccn12 [acalabrutinib]
- Percentage inhibition of kinase enzyme activity (BTK): 94.95%
- Percentage inhibition of kinase enzyme activity (PYK2): -3.55%
- Percentage inhibition of kinase enzyme activity (TYRO3): 3.11%
- Percentage inhibition of kinase enzyme activity (CLK1): -8.11%
- Percentage inhibition of kinase enzyme activity (DYRK3): 0.35%
- Percentage inhibition of kinase enzyme activity (JNK2): -1.85%
- Percentage inhibition of kinase enzyme activity (MRCKα): -7.47%
- Percentage inhibition of kinase enzyme activity (NuaK2): 3.11%
- Percentage inhibition of kinase enzyme activity (PKCα): -16.89%
- Percentage inhibition of kinase enzyme activity (ROCK2): -2.29%
- Percentage inhibition of kinase enzyme activity (SRPK2): 0.69%

SMILES: C=CC(=O)N1CCC[C@@H](n2nc(-c3ccc(Oc4ccccc4)cc3)c3c(N)ncnc32)C1 [ibrutinib]
- Percentage inhibition of kinase enzyme activity (PYK2): 3.37%
- Percentage inhibition of kinase enzyme activity (TYRO3): 11.95%
- Percentage inhibition of kinase enzyme activity (DYRK3): -3.93%
- Percentage inhibition of kinase enzyme activity (JNK2): -2.83%
- Percentage inhibition of kinase enzyme activity (MRCKα): -0.62%
- Percentage inhibition of kinase enzyme activity (NuaK2): 6.37%
- Percentage inhibition of kinase enzyme activity (PKCα): 0.74%
- Percentage inhibition of kinase enzyme activity (ROCK2): 3.74%
- Percentage inhibition of kinase enzyme activity (SRPK2): 3.01%

SMILES: O=C(c1ccc(Oc2ccccc2)cc1Cl)c1c[nH]c2ncnc(N[C@@H]3CC[C@@H](CO)OC3)c12 [nemtabrutinib]
- Percentage inhibition of kinase enzyme activity (BTK): 97.07%
- Percentage inhibition of kinase enzyme activity (PYK2): 100.08%
- Percentage inhibition of kinase enzyme activity (TYRO3): 58.33%
- Percentage inhibition of kinase enzyme activity (CLK1): 0.63%
- Percentage inhibition of kinase enzyme activity (DYRK3): -5.63%
- Percentage inhibition of kinase enzyme activity (JNK2): 4.23%
- Percentage inhibition of kinase enzyme activity (MRCKα): 9.50%
- Percentage inhibition of kinase enzyme activity (NuaK2): 24.70%
- Percentage inhibition of kinase enzyme activity (PKCα): -0.64%
- Percentage inhibition of kinase enzyme activity (ROCK2): 15.55%
- Percentage inhibition of kinase enzyme activity (SRPK2): 1.38%

SMILES: COc1ccc(F)cc1C(=O)NCc1ccc(-c2nn([C@@H](C)C(F)(F)F)c(N)c2C(N)=O)cc1 [pirtobrutinib]
- Percentage inhibition of kinase enzyme activity (BTK): 98.09%
- IC50 (BTK; K M,bin ATP): 2.3 nM
- Percentage inhibition of kinase enzyme activity (PYK2): 7.26%
- Percentage inhibition of kinase enzyme activity (TYRO3): -3.18%
- Percentage inhibition of kinase enzyme activity (CLK1): -2.61%
- Percentage inhibition of kinase enzyme activity (DYRK3): 7.54%
- Percentage inhibition of kinase enzyme activity (JNK2): 7.41%
- Percentage inhibition of kinase enzyme activity (MRCKα): 0.63%
- Percentage inhibition of kinase enzyme activity (NuaK2): -0.23%
- Percentage inhibition of kinase enzyme activity (PKCα): 11.69%
- Percentage inhibition of kinase enzyme activity (ROCK2): 1.18%
- Percentage inhibition of kinase enzyme activity (SRPK2): -2.34%

SMILES: C=CC(=O)N1CCC([C@@H]2CCNc3c(C(N)=O)c(-c4ccc(Oc5ccccc5)cc4)nn32)CC1 [zanubrutinib]
- Percentage inhibition of kinase enzyme activity (PYK2): 16.35%
